Data on 10 compounds can be found in publication PMC9202019 (ACS Omega, 2022).

Values joined by “and” are separate entries in the source; they are usually repeats but may differ in a detail not shown here. Identical values can stand only once. Like-named read-outs stand apart in the source and are kept apart here.

Series [1] can be described thus: Pharmacokinetics of caffeine alone and with pinocembrin in rats. The conditions noted are these: male, Wistar, rat, plasma, po, 15 mg/kg. The format is in vivo.
In series [2] the test system is CYP1A2. The following applies: cited from earlier work.
Series [3] concerns the target T1, CYP1A2 (Rattus norvegicus, UniProt P04799).
T1 sequence (P04799 1-513): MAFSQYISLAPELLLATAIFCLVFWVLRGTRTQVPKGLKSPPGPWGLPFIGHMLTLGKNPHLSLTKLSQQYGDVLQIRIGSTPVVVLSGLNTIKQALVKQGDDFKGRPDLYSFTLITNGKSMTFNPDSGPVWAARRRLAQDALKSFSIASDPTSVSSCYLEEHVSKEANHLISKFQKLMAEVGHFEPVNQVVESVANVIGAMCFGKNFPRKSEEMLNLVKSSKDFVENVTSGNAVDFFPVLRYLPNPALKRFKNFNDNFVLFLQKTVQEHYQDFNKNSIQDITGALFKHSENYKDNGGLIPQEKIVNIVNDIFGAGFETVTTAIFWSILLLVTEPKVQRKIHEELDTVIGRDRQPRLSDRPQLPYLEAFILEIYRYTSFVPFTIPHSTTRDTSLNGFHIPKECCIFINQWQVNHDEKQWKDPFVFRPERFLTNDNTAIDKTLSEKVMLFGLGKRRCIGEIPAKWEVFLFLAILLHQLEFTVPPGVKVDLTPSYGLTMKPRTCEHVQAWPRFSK
The conditions noted are these: read-out: IC50 for CYP1A2 in RLM; cited from earlier work.

Series [4] is classed as in vivo, Wistar rats. The following applies: male, Wistar, rat, plasma, po, 4 mg/kg; for AUC(0-t): AUC0–t, tacrine 4 mg/kg oral alone (group III); for half-life: T1/2, tacrine 4 mg/kg oral alone (group III).
Series [5] can be described thus: Stability of pinocembrin in HLM. In kind it is in vitro ADME, human. The following applies: pinocembrin 5 μM, HLM 0.3 mg/mL, 0-30 min, 37 °C.
The nature of series [6]: Stability of pinocembrin in RLM. The format is in vitro ADME, rat. The following applies: protocol as for HLM.
Series [7] concerns the target T1, CYP1A2. As to the kind of experiment: CYP1A2-catalyzed phenacetin O-deethylation in RLM. In kind it is in vitro ADME.
The nature of series [8]: Liver distribution of pinocembrin after intravenous dosing in rats. In kind it is in vivo. The conditions noted are these: male, Wistar, rat, 10 mg/kg.
The next series has as its system CYP2C9. The conditions noted are these: read-out: IC50 for CYP2C9 inhibition; cited from earlier work.
The test system of another series is CYP2C19. The conditions noted are these: read-out: IC50 for CYP2C19 inhibition; cited from earlier work.
Another series deals with CYP3A4. The conditions noted are these: read-out: IC50 for CYP3A4 inhibition; cited from earlier work.
Series [9] has as its target T2, CYP1A2 (Homo sapiens, UniProt P05177).
T2 sequence (P05177 1-516): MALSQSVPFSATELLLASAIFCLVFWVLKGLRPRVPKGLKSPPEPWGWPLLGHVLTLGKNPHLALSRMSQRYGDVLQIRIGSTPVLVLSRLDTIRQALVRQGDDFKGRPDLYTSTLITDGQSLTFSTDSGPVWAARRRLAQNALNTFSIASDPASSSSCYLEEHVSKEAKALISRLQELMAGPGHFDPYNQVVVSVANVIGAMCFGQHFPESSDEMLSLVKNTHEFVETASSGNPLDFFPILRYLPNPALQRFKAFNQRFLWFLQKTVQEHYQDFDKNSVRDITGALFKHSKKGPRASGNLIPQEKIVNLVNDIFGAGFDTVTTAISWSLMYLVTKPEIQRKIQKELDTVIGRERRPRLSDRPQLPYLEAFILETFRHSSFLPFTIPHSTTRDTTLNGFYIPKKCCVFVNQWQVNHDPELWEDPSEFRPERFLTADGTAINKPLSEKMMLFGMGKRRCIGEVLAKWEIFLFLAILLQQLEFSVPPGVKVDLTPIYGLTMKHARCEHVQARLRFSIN
The conditions noted are these: read-out: IC50 for CYP1A2-mediated phenacetin O-deethylation in HLM; cited from earlier work.

The conditions of series [10]: humans; cited from earlier work.
For series [11], the target named is T2, CYP1A2. The conditions noted are these: HLM; cited from earlier work.
Series [12] concerns the target T2, CYP1A2. The conditions noted are these: cited from earlier work.
Series [13] addresses T2, CYP1A2. The following applies: HLM 0.3 mg/mL, phenacetin 1–1500 μM, 30 min.
For series [14] the following is noted: humans; cited from earlier work. This is another data set of the same source.

Turning to `Cn1c(=O)c2c(ncn2C)n(C)c1=O` [caffeine], the AUC(0-t) in series [1] (AUC0–t, caffeine 15 mg/kg oral alone (group I)) was determined as 2840 ± 141 ng·h/mL. The compound further gave a half-life in series [1] (T1/2, caffeine 15 mg/kg oral alone (group I)) of 1.1 ± 0.1 h. Also, in the series with CYP1A2 [2], the “portion of the drug metabolized by CYP1A2” value is above 95%.

In the case of `Cc1nc2c([nH]1)c(=O)n(C)c(=O)n2Cc1ccco1` [furafylline], the IC50 on CYP1A2 [3] was 20.8 µM.

In series [4], `Nc1c2c(nc3ccccc13)CCCC2` [tacrine] had an AUC(0-t) of 142 ± 13 ng·h/mL and a half-life of 1.7 ± 0.2 h. In the series with CYP1A2 [2], the “contribution of CYP1A2 to metabolism” value is on record as above 90%.

`O=C1C[C@@H](c2ccccc2)Oc2cc(O)cc(O)c21` [pinocembrin]: the “Stability of pinocembrin in HLM (amount remaining vs 0 min)” value in series [5] is on record as “stable”. Besides, in series [6], the “Stability of pinocembrin in RLM (amount remaining vs 0 min)” value is listed as “stable”. Moreover, the IC50 against CYP1A2 [7] was 3.11 ± 0.09 µM; with CYP2C9, 13 µM; in the series with CYP2C19, 22 µM; in the series with CYP3A4, 28 µM. Moreover, in series [8] (liver and plasma), the Kp lay in the range of 1.8 to 3.8. The concentration at 5 min in series [8] (liver) was 3680 ng/g; in series [8] (plasma) it was 2030 ng/mL and 7.9 µM. For the same compound, the concentration at 15 min in series [8] (liver) is 2380 ng/g; in series [8] (plasma) it was 621 ng/mL.

Consider `CS(=O)(=O)c1ccc(C2=C(c3ccccc3)C(=O)OC2)cc1` [Rofecoxib], for which the IC50 on CYP1A2 [9] is 4.2 µM. Further, in [10], the “increase in plasma concentration of the CYP1A2 substrate tizanidine” value is on record as 13.6 fold.

Take `O=c1cc(-c2ccc(O)c(O)c2)oc2cc(O)cc(O)c12` [Luteolin]: the “type of CYP1A2 inhibition” value on CYP1A2 [11] is reported as “competitively”.

In [4], `Nc1c2c(nc3ccccc13)CCCC2O` (stereo not drawn) [hydroxytacrine, 1-hydroxytacrine] gave an AUC(0-t) of 907 ± 129 ng·h/mL and a half-life of 1.5 ± 0.3 h.

In the case of `CC(C)C1=Cc2ccc3c(c2C(=O)C1=O)CCCC3(C)C` [miltirone], the “type of CYP1A2 inhibition” value at CYP1A2 [12] (kinetic analysis) was “mixed-type”. In addition, the IC50 at CYP1A2 [12] (read-out: IC50 for CYP1A2 in HLM, HLM) is 1.73 µM.

With `CCOc1ccc(NC(C)=O)cc1` [phenacetin], the “maximum velocity of the uninhibited reaction (Vmax) for CYP1A2-catalyzed phenacetin O-deethylation” value at CYP1A2 [13] is reported as 1584 ± 12 pmol/min/mg of protein.

In the case of `c1ccc2[nH]c(-c3cscn3)nc2c1` [thiabendazole], the “enhancement in the plasma level of caffeine” value in series [14] was 1.6 fold.
